By EC50 is commonly meant the concentration at which the effect is half-maximal.

Where two headings read alike, the source gives them in different places.

This is an account of results in patent publication US8916702B2 (priority 2012, dated 2014).

In the assay the test system is HCV pseudoparticles (genotype 1a HCV E1 and E2 envelope, H77C isolate). Nature of the assay: microbe, parasite or virus in culture. As to conditions: Hepatitis C virus. The class given is cell-based.
[1] abbreviates: Huh-7, 48 h, read-out: Activity (EC50 class), HCV pseudoparticle infection of Huh7 cells, luciferase 2 days after infection, EC50 expressed as class A/B.
Where [2] appears, read: Huh-7, read-out: Activity (EC50 class), HCV pseudoparticles (genotype 1a, H77C) in Huh7 cells, EC50 expressed as class A/B.
Setting [3] is: Huh-7, 48 h, read-out: Activity (EC50 class), HCV pseudoparticles, Huh7 cells, luciferase 2 days after infection, average of duplicates.
The mark [4] stands for this setting: Huh-7, 48 h, HCV pseudoparticle infection of Huh7 cells, luciferase 2 days after infection, average of duplicates.

Regarding `CC(C)(C)OC(=O)N1CCC(NC(=O)C(=O)NC[C@H](NC(=O)c2ccc(Nc3nc(NC4(c5ccc(Cl)cc5)CC4)nc(OCC(F)(F)F)n3)cc2)C(=O)O)CC1` [Compound 1079], the 50% effective concentration (EC50) under setting [1] fell in the range of 0.01 to 10 nM.

With `NC(=O)C(=O)NCCCCNC(=O)c1ccc(Nc2nc(NC3(c4ccc(Cl)cc4)CC3)nc(OCC(F)(F)F)n2)cc1` [Compound 3391], the EC50 under setting [2] was in the range of 0.01 to 10 nM.

Consider `CCOCC1(CNC(=O)C(=O)NCC[C@H](NC(=O)c2ccc(Nc3nc(NC4(c5ccc(Cl)cc5)CC4)nc(OCC(F)(F)F)n3)cc2)C(=O)O)CC1` [Compound 1422], for which, under setting [1], the concentration for a half-maximal effect (EC50) was 0.01 to 10 nM.

With `O=C(NC[C@H](NC(=O)c1ccc(Nc2nc(NC3(c4ccc(Cl)cc4)CC3)nc(OCC(F)(F)F)n2)cc1)C(=O)O)C(=O)Nc1cccnc1` [Compound 1367], the 50% effective concentration (EC50) under setting [1] lay in the range of 0.01 to 10 nM.

For the compound `O=C(NC[C@H](NC(=O)c1ccc(Nc2nc(NC3(c4ccc(Cl)cc4)CC3)nc(OCC(F)(F)F)n2)cc1)C(=O)O)C(=O)Nc1ccc(N2CCCC2)nc1` [Compound 3776], under setting [3], the concentration giving a half-maximal response (EC50) is 0.01 to 10 nM.

For the compound `CN(CCCNC(=O)c1ccc(Nc2nc(NC3(c4ccc(Cl)cc4)CC3)nc(OCC(F)(F)F)n2)cc1)C(=O)C(=O)NCc1ccc(F)cc1` [Compound 3444], the EC50 under setting [2] is 0.01 to 10 nM.

`CC(C)(CNC(=O)C(=O)N1CCCCC1)CNC(=O)c1ccc(Nc2nc(NC3(c4ccc(Cl)cc4)CC3)nc(OCC(F)(F)F)n2)cc1` [Compound 1550]: the 50% effective concentration (EC50) under setting [1] lay in the range of 0.01 to 10 nM.

As for `CN(CCCNC(=O)c1ccc(Nc2nc(NC3(c4ccc(Cl)cc4)CC3)nc(OCC(F)(F)F)n2)cc1)C(=O)C(=O)Nc1ccc(F)cc1F` [Compound 3449], under setting [2], the half-maximal effective concentration (EC50) is 0.01 to 10 nM.

As to `O=C(NCCC(NC(=O)c1ccc(Nc2nc(NC3(c4ccc(Cl)cc4)CC3)nc(OCC(F)(F)F)n2)cc1)C(=O)O)C(=O)Nc1ccc(Cn2cccn2)cc1` (stereo not shown) [Compound 3533], the EC50 under setting [2] was in the range of 0.01 to 10 nM.

Turning to `O=C(NCC[C@H](NC(=O)c1ccc(Nc2nc(NC3(c4ccc(Cl)cc4)CC3)nc(OCC(F)(F)F)n2)cc1)C(=O)O)C(=O)Nc1ccc(F)cc1F` [Compound 1502], the EC50 under setting [1] is 0.01 to 10 nM.

Consider `COC(=O)[C@H](CNC(=O)C(=O)Nc1ccc(Oc2ccc(F)cc2)cc1)NC(=O)c1ccc(Nc2nc(NC3(c4ccc(Cl)cc4)CC3)nc(OCC(F)(F)F)n2)cc1` [Compound 3184], for which the concentration giving a half-maximal response (EC50) under setting [2] fell in the range of 0.01 to 10 nM.

With `CC(=O)c1cccc(NC(=O)C(=O)NCC(C)(C)CNC(=O)c2ccc(Nc3nc(NC4(c5ccc(Cl)cc5)CC4)nc(OCC(F)(F)F)n3)cc2)c1` [Compound 3668], under setting [3], the EC50 is 0.01 to 10 nM.

As to `Cc1cc(C)nc(N(C)c2ccc(NC(=O)C(=O)NC/C(=N/C(=O)c3ccc(Nc4nc(NC5(c6ccc(Cl)cc6)CC5)nc(OCC(F)(F)F)n4)cc3)C(=O)O)cc2)n1` [Compound 3171], the half-maximal effective concentration (EC50) under setting [2] was in the range of 0.01 to 10 nM.

As for `O=C(Nc1ccc(F)cc1F)C(=O)N(CCO)CCCNC(=O)c1ccc(Nc2nc(NC3(c4ccc(Cl)cc4)CC3)nc(OCC(F)(F)F)n2)cc1` [Compound 3503], under setting [2], the concentration for a half-maximal effect (EC50) fell in the range of 0.01 to 10 nM.

Regarding `CC(C)(CNC(=O)C(=O)Nc1ccc(C(F)(F)F)cc1C#N)CNC(=O)c1ccc(Nc2nc(NC3(c4ccc(Cl)cc4)CC3)nc(OCC(F)(F)F)n2)cc1` [Compound 3435], the EC50 under setting [2] lay in the range of 0.01 to 10 nM.

With `O=C(NC[C@H](NC(=O)c1ccc(Nc2nc(NC3(c4ccccc4)CC3)nc(OCC(F)(F)F)n2)cc1)C(=O)O)C(=O)Nc1ccc(Oc2ccc(F)cc2)cc1` [Compound 3269], the EC50 under setting [2] fell in the range of 0.01 to 10 nM.

As to `CC(C)(CNC(=O)C(=O)Nc1ccc2sccc2c1)CNC(=O)c1ccc(Nc2nc(NC3(c4ccc(Cl)cc4)CC3)nc(OCC(F)(F)F)n2)cc1` [Compound 3666], the half-maximal effective concentration (EC50) under setting [3] lay within 0.01 to 10 nM.

`Cc1ccc(NC(=O)C(=O)NCC(O)CNC(=O)c2ccc(Nc3nc(NC4(c5ccc(Cl)cc5)CC4)nc(OCC(F)(F)F)n3)cc2)cc1` (stereo not shown) [Compound 3367]: the EC50 under setting [2] lay within 0.01 to 10 nM.

As for `O=C(NCC(O)CNC(=O)c1ccc(Nc2nc(NC3(c4ccc(Cl)cc4)CC3)nc(OCC(F)(F)F)n2)cc1)C(=O)N1CCc2ccccc2C1` (stereo not shown) [Compound 3464], the EC50 under setting [2] fell in the range of 0.01 to 10 nM.

Take `O=C(NCC[C@@H](NC(=O)c1ccc(Nc2nc(NC3(c4ccc(Cl)cc4)CC3)nc(OCC(F)(F)F)n2)cc1)C(=O)O)C(=O)Nc1cccc(F)c1F` [Compound 1530]: the half-maximal effective concentration (EC50) under setting [1] lay within 0.01 to 10 nM.

Turning to `CC1(C)CC(NC(=O)C(=O)NCC[C@H](NC(=O)c2ccc(Nc3nc(NC4(c5ccc(Cl)cc5)CC4)nc(OCC(F)(F)F)n3)cc2)C(=O)O)CC(C)(C)C1` [Compound 1115], the EC50 under setting [1] lay in the range of 0.01 to 10 nM.

Take `COC(=O)[C@H](CNC(=O)C(=O)Nc1ccc(-c2csc(N3CCOCC3)n2)cc1)NC(=O)c1ccc(Nc2nc(NC3(c4ccc(Cl)cc4)CC3)nc(OCC(F)(F)F)n2)cc1` [Compound 3201]: under setting [2], the EC50 was in the range of 0.01 to 10 nM.

`CC(C)(CNC(=O)C(=O)Nn1cnnc1)CNC(=O)c1ccc(Nc2nc(NC3(c4ccc(Cl)cc4)CC3)nc(OCC(F)(F)F)n2)cc1` [Compound 3253]: the concentration for a half-maximal effect (EC50) under setting [2] fell in the range of 0.01 to 10 nM.

For the compound `COc1ccc(C(NC(=O)C(=O)NCC[C@H](NC(=O)c2ccc(Nc3nc(NC4(c5ccc(Cl)cc5)CC4)nc(OCC(F)(F)F)n3)cc2)C(=O)O)C2CC2)cc1` (stereo partly shown) [Compound 1437], the 50% effective concentration (EC50) under setting [1] was 0.01 to 10 nM.

For `CC(=O)Nc1ccc(NC(=O)C(=O)NC[C@H](NC(=O)c2ccc(Nc3nc(NC4(c5ccc(Cl)cc5)CC4)nc(OCC(F)(F)F)n3)cc2)C(=O)O)cn1` [Compound 3762], the 50% effective concentration (EC50) under setting [3] was 0.01 to 10 nM.

As to `CCc1ccc(NC(=O)C(=O)NCC[C@H](NC(=O)c2ccc(Nc3nc(NC4(c5ccc(Cl)cc5)CC4)nc(OCC(F)(F)F)n3)cc2)C(=O)O)cc1` [Compound 3551], under setting [2], the EC50 lay in the range of 0.01 to 10 nM.

Consider `CC1(C)C(CNC(=O)C(=O)NCC[C@@H](NC(=O)c2ccc(Nc3nc(NC4(c5ccc(Cl)cc5)CC4)nc(OCC(F)(F)F)n3)cc2)C(=O)O)C1(C)C` [Compound 1449], for which the EC50 under setting [1] was in the range of 0.01 to 10 nM.

Take `O=C(NCC[C@H](NC(=O)c1ccc(Nc2nc(NC3(c4ccc(Cl)cc4)CC3)nc(OCC(F)(F)F)n2)cc1)C(=O)O)C(=O)NCc1ccccc1` [Compound 1187]: the EC50 runs as follows: under setting [4], 0.08 nM; under setting [1], 0.01 to 10 nM.

With `Cc1ccc(CNC(=O)C(=O)NCC[C@H](NC(=O)c2ccc(Nc3nc(NC4(c5ccc(Cl)cc5)CC4)nc(OCC(F)(F)F)n3)cc2)C(=O)O)cc1` [Compound 1185], the half-maximal effective concentration (EC50) under setting [1] fell in the range of 0.01 to 10 nM.

In the case of `O=C(NC[C@H](NC(=O)c1ccc(Nc2nc(NC3(c4ccc(Cl)cc4)CC3)nc(OCC(F)(F)F)n2)cc1)C(=O)Cl)C(=O)Nc1cccc(-n2ccnc2)c1` [Compound 3789], the EC50 under setting [3] was 0.01 to 10 nM.

In the case of `COC(=O)[C@H](CNC(=O)C(=O)Nc1ccc(-c2ccccc2)cc1)NC(=O)c1ccc(Nc2nc(NC3(c4ccc(Cl)cc4)CC3)nc(OCC(F)(F)F)n2)cc1` [Compound 3083], the EC50 under setting [2] is 0.01 to 10 nM.

On to `O=C(CNC(=O)C(=O)Nc1cccc(F)c1)CNC(=O)c1ccc(Nc2nc(NC3(c4ccc(Cl)cc4)CC3)nc(OCC(F)(F)F)n2)cc1` [Compound 3363], for which, under setting [2], the EC50 lay within 0.01 to 10 nM.

In the case of `CC(CNC(=O)C(=O)NC[C@H](NC(=O)c1ccc(Nc2nc(NC3(c4ccc(Cl)cc4)CC3)nc(OCC(F)(F)F)n2)cc1)C(=O)O)c1ccccc1` (stereo partly shown) [Compound 1395], under setting [1], the half-maximal effective concentration (EC50) lay in the range of 0.01 to 10 nM.

Regarding `COc1ccc(CNC(=O)C(=O)NC[C@H](NC(=O)c2ccc(Nc3nc(NC4(c5ccc(Cl)cc5)CC4)nc(OCC(F)(F)F)n3)cc2)C(=O)O)c(OC)c1` [Compound 1172], the EC50 is, setting by setting: under setting [4], 9.26 nM; under setting [1], 0.01 to 10 nM.

As for `COC(=O)[C@H](CCNC(=O)C(=O)NCCn1ccnc1C)NC(=O)c1ccc(Nc2nc(NC3(c4ccc(Cl)cc4)CC3)nc(OCC(F)(F)F)n2)cc1` [Compound 1323], the EC50 is 6.28 nM under setting [4] and 0.01 to 10 nM under setting [1].

Consider `O=C(NCC[C@H](NC(=O)c1ccc(Nc2nc(NC3(c4ccc(Cl)cc4)CC3)nc(OCC(F)(F)F)n2)cc1)C(=O)O)C(=O)Nc1ccccc1F` [Compound 1273], for which the EC50 under setting [1] lay within 0.01 to 10 nM.

Turning to `COC(=O)[C@H](CCNC(=O)C(=O)Nc1cccc(-c2ccc(Cl)cc2)c1)NC(=O)c1ccc(Nc2nc(NC3(c4ccc(Cl)cc4)CC3)nc(OCC(F)(F)F)n2)cc1` [Compound 3599], the EC50 under setting [3] was 0.01 to 10 nM.

As for `COC(=O)[C@H](CCNC(=O)C(=O)Nc1ccc(-n2ccc(C(F)(F)F)n2)cc1)NC(=O)c1ccc(Nc2nc(NC3(c4ccc(Cl)cc4)CC3)nc(OCC(F)(F)F)n2)cc1` [Compound 3127], the EC50 under setting [2] was 0.01 to 10 nM.

On to `CC(C)(CNC(=O)C(=O)Nc1nc2cc(F)ccc2s1)CNC(=O)c1ccc(Nc2nc(NC3(c4ccc(Cl)cc4)CC3)nc(OCC(F)(F)F)n2)cc1` [Compound 3810], for which, under setting [3], the EC50 was in the range of 0.01 to 10 nM.

With `COC(=O)[C@H](CNC(=O)C(=O)N[C@@H]1C[C@H]2C[C@@H]([C@H]1C)C2(C)C)NC(=O)c1ccc(Nc2nc(NC3(c4ccc(Cl)cc4)CC3)nc(OCC(F)(F)F)n2)cc1` [Compound 1069], under setting [1], the concentration giving a half-maximal response (EC50) fell in the range of 0.01 to 10 nM.

With `C=C(C)c1ccccc1NC(=O)C(=O)NCC(C)(C)CNC(=O)c1ccc(Nc2nc(NC3(c4ccc(Cl)cc4)CC3)nc(OCC(F)(F)F)n2)cc1` [Compound 3140], under setting [2], the EC50 was in the range of 0.01 to 10 nM.

Turning to `O=C(NC[C@H]1CCC[C@H]1NC(=O)c1ccc(Nc2nc(NC3(c4ccc(Cl)cc4)CC3)nc(OCC(F)(F)F)n2)cc1)C(=O)Nc1ccc(F)cc1` [Compound 1474], the EC50 under setting [1] is 0.01 to 10 nM.

Turning to `Cc1ccc(NC(=O)C(=O)NCC(C)(C)CNC(=O)c2ccc(Nc3nc(NC4(c5ccc(Cl)cc5)CC4)nc(OCC(F)(F)F)n3)cc2)c(C(F)(F)F)c1` [Compound 3455], under setting [2], the EC50 fell in the range of 0.01 to 10 nM.

Take `N#Cc1ccc(NC(=O)C(=O)NC/C(=N/C(=O)c2ccc(Nc3nc(NC4(c5ccc(Cl)cc5)CC4)nc(OCC(F)(F)F)n3)cc2)C(=O)O)cc1` [Compound 3167]: the EC50 under setting [2] was 0.01 to 10 nM.

Regarding `O=C(NC[C@H](NC(=O)c1ccc(Nc2nc(NC3(c4ccc(Cl)cc4)CC3)nc(OCC(F)(F)F)n2)cc1)C(=O)O)C(=O)NC1CCC(O)CC1` (stereo partly shown) [Compound 1078], the 50% effective concentration (EC50) by setting is: under setting [4], 11.9 nM; under setting [1], 10 to 1000 nM.
